Key:
P388 leukemia = assay: Antitumor studies against P388 leukemia in mice (median survival time, T/c); type: in vivo, CDF1 mice; conditions: 24 hours after i.p. implant of 1x10^6 P388 cells, Treated/Control x 100
Method: To investigate the therapeutic effectiveness of doxorubicin and daunorubicin entrapped in liposomes, antitumor studies were performed against P388 leukemia in CDF1 mice. Groups of ten mice were implanted intraperitoneally with lxl0^6 cells of P388 tumor, and drug treatment was initiated on day one intraperitoneally or intravenously after tumor cell inoculation. Antitumor efficacy was expressed in leukemic animals by the increase in median survival time, in the dose-range used, compared to controls. Dead animals were autopsied and toxicity was established on the basis of macroscopic necropsy findings.

[1] = Percentage of entrapment of drugs in liposomes, determined by fluorescence after dialysis; type: physicochemical; conditions: liposomes of cardiolipin, phosphatidyl choline, cholesterol, stearylamine-DTPA
Method: For the preparation of liposomes, 6 mg of doxorubicin or daunorubicin was added to 9 mg of cardiolipin solution and evaporated to dryness under N2. To this dried mixture were then added 22.5 mg of phosphatidyl choline, 7.5 mg cholesterol and 3 mg of stearylamine-DTPA. Again, the mixture was evaporated to dryness under N2.
The dried lipids and doxorubicin or daunorubicin were resuspended in 6 ml of 0.01 M phosphate buffer with 0.85% NaCl, pH 7.4 (PBS). After one-half-hour swelling time, the liposomes were stirred for 15 minutes, followed by sonication (Heat System, Model W-220F) in a fixed temperature bath at 37°C for 90 minutes. The non-entrapped doxorubicin or daunorubicin was separated from liposome-encapsulated drug by extensive dialysis against 0.001 M phosphate buffer with 0.85% NaCl, pH 7.4 at 4°C over a period of 20 hours with at least two changes of buffer solutions (250 ml/ml liposomes). […] The difference in encapsulation of these two drugs relates to their lipophilicity; daunorubicin is more lipophilic than doxorubicin. The liposomes were freshly prepared each day and were diluted with 0.01 M phosphate buffer (PBS) so as to administer doses of doxorubicin or daunorubicin equivalent to doses of free drugs for pharmacological, toxicological and therapeutic studies.

[2] = Lethal toxicity in normal mice; type: in vivo; conditions: 20 mg/kg intraperitoneally, normal CDF1 mice, by day 10
Method: For comparison of lethal toxicity of free doxorubicin and doxorubicin entrapped in liposomes, normal CDF1 mice were administered a dose of 20 mg/kg intraperitonally. The mice were observed until day 80 post-drug administration. The control mice received blank liposomes representing the same concentration of the lipid used to entrap a dose of 20 mg/kg of doxorubicin. Mice in each group were weighed twice weekly and were observed daily.

[3] = Tissue disposition (heart, liver, spleen, lungs, kidney, intestine) in mice after i.v. administration; conditions: doxorubicin 6 mg/kg i.v., CDF1 mice; at 15 minutes
Method: (§1) Male CDF1 mice weighing 20-25 g were used to evaluate the influence of liposome encapsulation on plasma levels and physiological disposition of daunorubicin and doxorubicin. Free or encapsulated daunorubicin or doxorubicin was administered intravenously via a lateral tail vein at a dose of 6 mg/kg at 2% body weight (0.02 ml/gm). At 5, 15, 30, 60, 120, 240, and 480 minutes and at 24 hours, mice in each group were bled from the orbital sinus. Blood was collected in heparinized tubes and centrifuged at 1500 rpm for 10 minutes. The plasma layer was separated and frozen. Mice were then killed by cervical dislocation, and the liver, kidney, heart, spleen, small intestine and lungs were excised, rinsed in normal saline, and stored at -20°C until assayed.
(§2) Plasma and tissues were analyzed for drug equivalents by the method of Formelli et al. (Cancer Chemotherapy and Pharmacology, 5, 129-144 (1981)) as modified in the inventor's laboratories. Plasma (0.25 ml) was diluted to 1 ml with distilled water, followed by addition of 0.2 ml of AgN03 (33% wt/vol). Tissues were homogenized in 1 ml of water in a polytron homogenizer. […] The butanol extract was read in a spectrofluorometer at 470 nm excitation and 585 nm emission. Control plasma and tissues obtained from mice treated with blank liposomes were treated the same way and read in the fluorometer to correct for any endogenous fluorescence. […]

[4] = Plasma levels in mice after i.v. administration of free or liposome-entrapped drug; conditions: 6 mg/kg i.v.
Method: as §1, §2

SMILES	T/c (%) (P388 leukemia; 2 mg/kg i.p.)	T/c (%) (P388 leukemia; 4 mg/kg i.p.)	T/c (%) (P388 leukemia; 6 mg/kg i.p.)	T/c (%) (P388 leukemia; 6 mg/kg i.p., listed as daunorubicin)	T/c (%) (P388 leukemia; 15 mg/kg l.v)	T/c (%) (P388 leukemia; 20 mg/kg i.v.)	efficiency of entrapment in liposomes [1]	mortality [2] [%]	T/c (%) (P388 leukemia; 15 mg/kg i.p.)	T/c (%) (P388 leukemia; 20 mg/kg i.p.)	peak drug concentration in the kidney [3] [µg/gm]	peak plasma concentration (doxorubicin) [4] [µg/mL]
COc1cccc2c1C(=O)c1c(O)c3c(c(O)c1C2=O)C[C@@](O)(C(C)=O)C[C@@H]3O[C@H]1C[C@H](N)[C@H](O)[C@H](C)O1 [Free Daunorubicin, daunorubicin]	145.5	136.4	109.1	109	145.5	154.5	75-85%					
COc1cccc2c1C(=O)c1c(O)c3c(c(O)c1C2=O)C[C@@](O)(C(=O)CO)C[C@@H]3O[C@H]1C[C@H](N)[C@H](O)[C@H](C)O1 [Free Doxorubicin, doxorubicin]							65-75%	100	130	100	41.0	2.4

Reference: patent publication EP0198765A2, “Preparation of liposomes” (GEORGETOWN UNIVERSITY, priority 1985, dated 1986)
